Target: IDH1 R132H (Homo sapiens (Human), UniProt O75874, R132H)
Test: Assays for IDH1 R132H Inhibitors (NADPH/aKG, resazurin detection)
Type: biochemical
Conditions: IDH1 R132H enzyme, Table 2; read-out: IDHR132H Activity
How it was run: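 Substrate mix held 8 uM NADPH plus 2 mM aKG; buffer was 20 mM Tris pH 7.5 with 150 mM NaCl, 10 mM MgCl2, 0.03% BSA. After 50 min room-temperature reaction, NADPH remaining was detected with 30 μM resazurin mix over 5 min.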

IDH1 R132H, sequence (O75874 whole entry R132H): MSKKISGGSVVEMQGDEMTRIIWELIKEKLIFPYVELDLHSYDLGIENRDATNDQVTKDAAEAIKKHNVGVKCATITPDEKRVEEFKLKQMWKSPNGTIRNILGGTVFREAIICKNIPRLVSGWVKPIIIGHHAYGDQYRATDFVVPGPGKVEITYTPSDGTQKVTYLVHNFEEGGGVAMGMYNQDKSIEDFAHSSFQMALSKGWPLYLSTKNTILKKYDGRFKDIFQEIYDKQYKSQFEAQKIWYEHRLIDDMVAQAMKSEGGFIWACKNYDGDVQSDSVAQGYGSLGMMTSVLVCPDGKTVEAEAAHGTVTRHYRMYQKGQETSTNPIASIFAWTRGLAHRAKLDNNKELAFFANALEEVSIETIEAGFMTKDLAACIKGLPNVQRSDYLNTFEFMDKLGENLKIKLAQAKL

Row | Structure (SMILES) | IC50
1 | CC(C)c1nc(N2CCN(C(=O)c3cocn3)[C@H](C)C2)c(C#N)c2c1COC(C)(C)C2 [Compound 198, (R)-8-isopropyl-3,3-dimethyl-6-(3-methyl-4-(oxazole-4-carbonyl)piperazin-1-yl)-3,4-dihydro-1H-pyrano[3,4-c]pyridine-5-carbonitrile] | 1000 to 10000 nM
2 | COc1ccccc1CC(=O)N1CCN(c2nc(C(C)C)c3c(c2C#N)CC(C)(C)OC3)C[C@H]1C [Compound 199, (R)-8-isopropyl-6-(4-(2-(2-methoxyphenyl)acetyl)-3-methylpiperazin-1-yl)-3,3-dimethyl-3,4-dihydro-1H-pyrano[3,4-c]pyridine-5-carbonitrile] | 1000 to 10000 nM
3 | CC(C)c1nc(N2CCN(C(=O)c3ccco3)[C@H](c3ccccc3)C2)c(C#N)c2c1COC(C)(C)C2 [Compound 200, (R)-6-(4-(furan-2-carbonyl)-3-phenylpiperazin-1-yl)-8-isopropyl-3,3-dimethyl-3,4-dihydro-1H-pyrano[3,4-c]pyridine-5-carbonitrile] | 1000 to 10000 nM
4 | C[C@H]1CN(C(=O)c2ccco2)CCN1c1nc(C2CCCCC2)c2c(c1C#N)CCOC2 [Compound 201, (S)-8-cyclohexyl-6-(4-(furan-2-carbonyl)-2-methylpiperazin-1-yl)-3,4-dihydro-1H-pyrano[3,4-c]pyridine-5-carbonitrile] | 1000 to 10000 nM
5 | CC(C)c1nc(N2CCN(C(=O)c3ccco3)C[C@@H]2C)c(C#N)c2c1COC(C)(C)C2 [Compound 202, (S)-6-(4-(furan-2-carbonyl)-2-methylpiperazin-1-yl)-8-isopropyl-3,3-dimethyl-3,4-dihydro-1H-pyrano[3,4-c]pyridine-5-carbonitrile] | 1000 to 10000 nM
6 | C[C@H]1CN(C(=O)c2ccco2)CCN1c1nc(C2CC2)c2c(c1C#N)CC(C)(C)OC2 [Compound 203, (S)-8-cyclopropyl-6-(4-(furan-2-carbonyl)-2-methylpiperazin-1-yl)-3,3-dimethyl-3,4-dihydro-1H-pyrano[3,4-c]pyridine-5-carbonitrile] | 1000 to 10000 nM
7 | C[C@@H]1CN(C(=O)c2ccco2)CCN1c1nc(C2CC2)c2c(c1C#N)CC(C)(C)OC2 [Compound 204, (R)-8-cyclopropyl-6-(4-(furan-2-carbonyl)-2-methylpiperazin-1-yl)-3,3-dimethyl-3,4-dihydro-1H-pyrano[3,4-c]pyridine-5-carbonitrile] | 1000 to 10000 nM
8 | Cc1ncoc1C(=O)N1CCN(c2nc(C(C)C)c3c(c2C#N)CC(C)(C)OC3)C[C@H]1C(C)C [Compound 213, (R)-8-isopropyl-6-(3-isopropyl-4-(4-methyloxazole-5-carbonyl)piperazin-1-yl)-3,3-dimethyl-3,4-dihydro-1H-pyrano[3,4-c]pyridine-5-carbonitrile] | 1000 to 10000 nM
9 | CC(C)c1nc(N2CCN(C(=O)Cc3ccccc3F)[C@H](C(C)C)C2)c(C#N)c2c1COC(C)(C)C2 [Compound 215, (R)-6-(4-(2-(2-fluorophenyl)acetyl)-3-isopropylpiperazin-1-yl)-8-isopropyl-3,3-dimethyl-3,4-dihydro-1H-pyrano[3,4-c]pyridine-5-carbonitrile] | 1000 to 10000 nM
10 | COc1ccccc1CC(=O)N1CCN(c2nc(C(C)C)c3c(c2C#N)CC(C)(C)OC3)C[C@H]1C(C)C [Compound 216, (R)-8-isopropyl-6-(3-isopropyl-4-(2-(2-methoxyphenyl)acetyl)piperazin-1-yl)-3,3-dimethyl-3,4-dihydro-1H-pyrano[3,4-c]pyridine-5-carbonitrile] | 1000 to 10000 nM
11 | CC(C)c1nc(N2CCN(C(=O)Cc3ccccn3)[C@H](C)C2)c(C#N)c2c1COC(C)(C)C2 [Compound 218, (R)-8-isopropyl-3,3-dimethyl-6-(3-methyl-4-(2-(pyridin-2-yl)acetyl)piperazin-1-yl)-3,4-dihydro-1H-pyrano[3,4-c]pyridine-5-carbonitrile] | 1000 to 10000 nM
12 | CC(C)c1nc(N2CCN(C(=O)Cc3ccccc3F)[C@H](C)C2)c(C#N)c2c1COC(C)(C)C2 [Compound 219, (R)-6-(4-(2-(2-fluorophenyl)acetyl)-3-methylpiperazin-1-yl)-8-isopropyl-3,3-dimethyl-3,4-dihydro-1H-pyrano[3,4-c]pyridine-5-carbonitrile] | 1000 to 10000 nM
13 | Cc1nc2ccccn2c1C(=O)N1CCN(c2nc(C(C)C)c3c(c2C#N)CC(C)(C)OC3)C[C@H]1C [Compound 220, (R)-8-isopropyl-3,3-dimethyl-6-(3-methyl-4-(2-methylimidazo[1,2-a]pyridine-3-carbonyl)piperazin-1-yl)-3,4-dihydro-1H-pyrano[3,4-c]pyridine-5-carbonitrile] | 1000 to 10000 nM
14 | COc1cccc(CC(=O)N2CCN(c3nc(C(C)C)c4c(c3C#N)CC(C)(C)OC4)C[C@H]2C)c1 [Compound 221, (R)-8-isopropyl-6-(4-(2-(3-methoxyphenyl)acetyl)-3-methylpiperazin-1-yl)-3,3-dimethyl-3,4-dihydro-1H-pyrano[3,4-c]pyridine-5-carbonitrile] | 1000 to 10000 nM
15 | CC(C)c1nc(N2CCN(C(=O)c3cnc4ccccn34)[C@H](C)C2)c(C#N)c2c1COC(C)(C)C2 [Compound 222, (R)-6-(4-(imidazo[1,2-a]pyridine-3-carbonyl)-3-methylpiperazin-1-yl)-8-isopropyl-3,3-dimethyl-3,4-dihydro-1H-pyrano[3,4-c]pyridine-5-carbonitrile] | 1000 to 10000 nM

Results, then the molecule that gave them:

Row | IC50 | Structure (SMILES)
16 | 1000 to 10000 nM | Cc1nc2ccccn2c1C(=O)N1CCN(c2nc(C3CCCCC3)c3c(c2C#N)CCOC3)C[C@H]1C [Compound 190, (R)-8-cyclohexyl-6-(3-methyl-4-(2-methylimidazo[1,2-a]pyridine-3-carbonyl)piperazin-1-yl)-3,4-dihydro-1H-pyrano[3,4-c]pyridine-5-carbonitrile]
17 | 1000 to 10000 nM | C[C@@H]1CN(c2nc(C3CCCCC3)c3c(c2C#N)CCOC3)CCN1C(=O)Cc1cccc(F)c1 [Compound 191, (R)-8-cyclohexyl-6-(4-(2-(3-fluorophenyl)acetyl)-3-methylpiperazin-1-yl)-3,4-dihydro-1H-pyrano[3,4-c]pyridine-5-carbonitrile]
18 | 1000 to 10000 nM | Cc1ccoc1C(=O)N1CCN(c2nc(C3CC3)c3c(c2C#N)CC(C)(C)OC3)C[C@H]1C(C)C [Compound 193]
19 | < 500 nM | CC(C)[C@@H]1CN(c2nc(C3CC3)c3c(c2C#N)CC(C)(C)OC3)CCN1C(=O)Cc1cccs1 [Compound 194]
20 | < 500 nM | CC(C)c1nc(N2CCN(C(=O)Cc3cccs3)[C@H](C(C)C)C2)c(C#N)c2c1COC(C)(C)C2 [Compound 195, (R)-8-isopropyl-6-(3-isopropyl-4-(2-(thiophen-2-yl)acetyl)piperazin-1-yl)-3,3-dimethyl-3,4-dihydro-1H-pyrano[3,4-c]pyridine-5-carbonitrile]
21 | 1000 to 10000 nM | Cc1cc(C(=O)N2CCN(c3nc(C(C)C)c4c(c3C#N)CC(C)(C)OC4)C[C@H]2C)c(C)o1 [Compound 196, (R)-6-(4-(2,5-dimethylfuran-3-carbonyl)-3-methylpiperazin-1-yl)-8-isopropyl-3,3-dimethyl-3,4-dihydro-1H-pyrano[3,4-c]pyridine-5-carbonitrile]
22 | 1000 to 10000 nM | Cc1ncoc1C(=O)N1CCN(c2nc(C(C)C)c3c(c2C#N)CC(C)(C)OC3)C[C@H]1C [Compound 197, (R)-8-isopropyl-3,3-dimethyl-6-(3-methyl-4-(4-methyloxazole-5-carbonyl)piperazin-1-yl)-3,4-dihydro-1H-pyrano[3,4-c]pyridine-5-carbonitrile]
23 | < 500 nM | CC[C@@H]1CN(c2nc(C(C)C)c3c(c2C#N)CC(C)(C)OC3)CCN1C(=O)c1ccoc1 [Compound 205, (R)-6-(3-ethyl-4-(furan-3-carbonyl)piperazin-1-yl)-8-isopropyl-3,3-dimethyl-3,4-dihydro-1H-pyrano[3,4-c]pyridine-5-carbonitrile]
24 | < 500 nM | CC[C@@H]1CN(c2nc(C(C)C)c3c(c2C#N)CC(C)(C)OC3)CCN1C(=O)Cc1cccs1 [Compound 206, (R)-6-(3-ethyl-4-(2-(thiophen-2-yl)acetyl)piperazin-1-yl)-8-isopropyl-3,3-dimethyl-3,4-dihydro-1H-pyrano[3,4-c]pyridine-5-carbonitrile]
25 | < 500 nM | CC[C@@H]1CN(c2nc(C(C)C)c3c(c2C#N)CC(C)(C)OC3)CCN1C(=O)c1ccoc1C [Compound 207, (R)-6-(3-ethyl-4-(2-methylfuran-3-carbonyl)piperazin-1-yl)-8-isopropyl-3,3-dimethyl-3,4-dihydro-1H-pyrano[3,4-c]pyridine-5-carbonitrile]
26 | 500 to 1000 nM | COc1ccccc1CC(=O)N1CCN(c2nc(C3CC3)c3c(c2C#N)CC(C)(C)OC3)C[C@H]1C(C)C [Compound 208]
27 | < 500 nM | CC(C)[C@@H]1CN(c2nc(C3CC3)c3c(c2C#N)CC(C)(C)OC3)CCN1C(=O)Cc1ccccn1 [Compound 211]
28 | 500 to 1000 nM | CC(C)c1nc(N2CCN(C(=O)c3cocn3)[C@H](C(C)C)C2)c(C#N)c2c1COC(C)(C)C2 [Compound 212, (R)-8-isopropyl-6-(3-isopropyl-4-(oxazole-4-carbonyl)piperazin-1-yl)-3,3-dimethyl-3,4-dihydro-1H-pyrano[3,4-c]pyridine-5-carbonitrile]
29 | 500 to 1000 nM | CC(C)c1nc(N2CCN(C(=O)Cc3ccccn3)[C@H](C(C)C)C2)c(C#N)c2c1COC(C)(C)C2 [Compound 214, (R)-8-isopropyl-6-(3-isopropyl-4-(2-(pyridin-2-yl)acetyl)piperazin-1-yl)-3,3-dimethyl-3,4-dihydro-1H-pyrano[3,4-c]pyridine-5-carbonitrile]
30 | 500 to 1000 nM | Cc1oncc1C(=O)N1CCN(c2nc(C(C)C)c3c(c2C#N)CC(C)(C)OC3)C[C@H]1C [Compound 217, (R)-8-isopropyl-3,3-dimethyl-6-(3-methyl-4-(5-methylisoxazole-4-carbonyl)piperazin-1-yl)-3,4-dihydro-1H-pyrano[3,4-c]pyridine-5-carbonitrile]
31 | 500 to 1000 nM | CC(C)c1nc(N2CCN(C(=O)c3ccco3)[C@@H](c3ccccc3)C2)c(C#N)c2c1COC(C)(C)C2 [Compound 223, (S)-6-(4-(furan-2-carbonyl)-3-phenylpiperazin-1-yl)-8-isopropyl-3,3-dimethyl-3,4-dihydro-1H-pyrano[3,4-c]pyridine-5-carbonitrile]
